In patent US5994334A, “Androgen synthesis inhibitors” (priority 1997, dated 1999):
Where two headings read alike, the source gives them in different places.

What was measured:
[1] = tested on: adrenal 17α-hydroxylase; test: Inhibition of adrenal 17α-hydroxylase; type: biochemical; details: guinea pig adrenal
Experimental: (§1) These studies were carried out using guinea pig adrenals. In contrast to the rat, the guinea pig synthesizes cortisol, like the human. […] I-5 and I-7 were of interest, as they had relatively little (4%) or no effect on the adrenal 17α-hydroxylase required for cortisol synthesis but had moderately strong effects on the C17,20 -lyase causing reduction in adrenal androgen synthesis (77% and 63%, respectively).

[2] = target: T1, Human Testicular C17,20-lyase (Homo sapiens, UniProt P05093); test: Inhibition of human testicular C17,20-lyase (pregnenolone substrate, testicular microsomes); type: biochemical
T1 construct: incubating human testicular microsomes; from tissue; host or cells: human testis, microsomes
T1 sequence (P05093 1-508): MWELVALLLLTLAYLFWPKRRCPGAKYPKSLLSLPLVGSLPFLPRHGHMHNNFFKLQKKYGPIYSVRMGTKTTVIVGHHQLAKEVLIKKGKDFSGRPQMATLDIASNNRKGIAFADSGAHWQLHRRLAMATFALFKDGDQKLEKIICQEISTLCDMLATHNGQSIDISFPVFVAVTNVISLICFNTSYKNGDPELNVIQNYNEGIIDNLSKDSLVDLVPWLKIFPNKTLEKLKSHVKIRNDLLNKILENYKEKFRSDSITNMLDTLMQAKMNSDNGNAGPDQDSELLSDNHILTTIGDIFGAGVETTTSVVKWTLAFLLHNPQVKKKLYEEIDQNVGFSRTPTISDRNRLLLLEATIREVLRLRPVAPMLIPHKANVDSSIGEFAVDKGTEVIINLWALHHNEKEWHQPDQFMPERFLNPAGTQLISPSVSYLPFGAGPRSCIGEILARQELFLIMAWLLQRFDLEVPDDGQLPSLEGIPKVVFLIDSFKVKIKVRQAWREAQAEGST
In short: (§2)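 Human testicular microsomes were incubated with radiolabeled pregnenolone and a range of test compound concentrations. Substrate, 17α-hydroxypregnenolone and DHEA were separated and quantified by reverse-phase HPLC. Hydroxylase activity came from total conversion to 17α-hydroxypregnenolone plus DHEA; lyase activity from conversion to DHEA alone.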

[3] = target: T2, Human Testicular 17α-Hydroxylase (Homo sapiens, UniProt P05093); test: Inhibition of human testicular 17α-hydroxylase (pregnenolone substrate, testicular microsomes); type: biochemical; details: IC50 17α-OHase
T2 construct: incubating human testicular microsomes; from tissue; host or cells: human testis, microsomes
T2 sequence (P05093 1-508): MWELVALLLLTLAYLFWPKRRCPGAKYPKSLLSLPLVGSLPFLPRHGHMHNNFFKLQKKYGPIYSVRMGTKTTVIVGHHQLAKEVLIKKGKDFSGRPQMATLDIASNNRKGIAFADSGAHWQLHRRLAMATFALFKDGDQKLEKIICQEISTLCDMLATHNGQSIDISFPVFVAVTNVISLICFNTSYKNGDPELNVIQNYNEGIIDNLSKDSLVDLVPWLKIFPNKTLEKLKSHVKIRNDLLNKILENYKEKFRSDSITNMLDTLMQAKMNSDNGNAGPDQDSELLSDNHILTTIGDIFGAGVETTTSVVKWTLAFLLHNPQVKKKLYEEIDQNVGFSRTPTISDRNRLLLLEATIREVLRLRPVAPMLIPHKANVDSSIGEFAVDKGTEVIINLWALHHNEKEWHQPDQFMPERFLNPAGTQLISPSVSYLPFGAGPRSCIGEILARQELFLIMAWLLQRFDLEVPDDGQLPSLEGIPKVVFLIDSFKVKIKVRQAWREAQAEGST
In short: as §2

[4] = target: T3, human 17α-hydroxylase/C17,20-lyase (Homo sapiens, UniProt P05093); test: Inhibition of human testicular 17α-hydroxylase/C17,20-lyase (enzyme complex as a whole); type: biochemical; details: for inhibition of 17α-hydroxylase/C17,20-lyase (in words): NI = no inhibition
T3 construct: incubating human testicular microsomes; from tissue; host or cells: human testis, microsomes
T3 sequence (P05093 1-508): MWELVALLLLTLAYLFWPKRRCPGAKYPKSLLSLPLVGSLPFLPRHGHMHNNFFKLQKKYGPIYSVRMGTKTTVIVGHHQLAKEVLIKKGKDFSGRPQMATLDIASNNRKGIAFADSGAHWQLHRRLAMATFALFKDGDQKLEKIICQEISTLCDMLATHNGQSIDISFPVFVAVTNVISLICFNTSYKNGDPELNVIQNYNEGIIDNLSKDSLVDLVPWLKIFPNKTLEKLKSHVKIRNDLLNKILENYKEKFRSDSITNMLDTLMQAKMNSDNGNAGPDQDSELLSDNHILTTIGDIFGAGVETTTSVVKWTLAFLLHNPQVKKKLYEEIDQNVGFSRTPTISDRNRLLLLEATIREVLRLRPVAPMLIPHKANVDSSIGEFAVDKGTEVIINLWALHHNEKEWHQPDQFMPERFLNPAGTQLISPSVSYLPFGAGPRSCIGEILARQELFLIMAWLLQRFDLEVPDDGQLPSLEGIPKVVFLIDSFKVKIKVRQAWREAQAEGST
In short: as §2

[5] = tested on: adrenal C17,20-lyase; test: Inhibition of adrenal C17,20-lyase; type: biochemical; details: guinea pig adrenal
Experimental: as §1

[6] = target: T4, Human Prostatic 5α-Reductase (Homo sapiens, UniProt P31213); test: Inhibition of human prostatic 5α-reductase (prostatic microsomes, [3H]testosterone); details: for inhibition at 0.01 µM: read-out: % Inhibition of 5α-reductase, [I] 10 nM; for inhibition at 0.1 µM: read-out: % Inhibition of 5α-reductase, [I] 100 nM
T4 sequence (P31213 1-254): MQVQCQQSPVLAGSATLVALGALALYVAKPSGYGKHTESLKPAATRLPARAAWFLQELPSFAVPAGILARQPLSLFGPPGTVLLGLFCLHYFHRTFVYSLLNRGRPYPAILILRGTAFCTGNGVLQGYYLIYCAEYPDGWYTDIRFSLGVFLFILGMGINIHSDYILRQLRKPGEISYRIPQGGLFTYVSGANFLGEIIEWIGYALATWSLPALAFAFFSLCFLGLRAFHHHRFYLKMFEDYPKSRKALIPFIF

[7] = target: human androgen receptor (AR) (Homo sapiens, UniProt P10275); test: Androgen receptor-mediated gene transcription, wild-type AR (luciferase, CV1 cells); type: cell-based; details: against DHT stimulation
[8] = tested on: normal male rats; test: In vivo studies in normal male rats: hormone levels; set-up: species or system rat; details: rat
Description: (§3) Studies in normal male rats have been carried out with 4-pregnen-3-one-20β-carboxaldehyde (I-16) (Li et al., 1992) and with its 20-carboxaldoxime (I-23)(Li et al., 1995).

[9] = tested on: mutant AR which is expressed in LNCaP cells; test: Androgen receptor-mediated gene transcription, mutant AR of LNCaP cells (luciferase, CV1 cells); type: cell-based, human
[10] = tested on: rat 17α-hydroxylase/C17,20-lyase; test: Inhibition of rat 17α-hydroxylase/C17,20-lyase; type: biochemical
Description: as §3

[11] = tested on: LNCaP human prostatic tumors; test: Human prostatic cancer (LNCaP) xenograft in male nude mice; type: in vivo, human (LNCaP) tumors in BALB/c male athymic mice; details: 1 mg/mouse/day s.c.
Experimental: We have reported that inoculation of MCF-7 breast cancer cells in Matrigel increases mammary tumor formation in nude mice (Yue et al., 1994). The same procedure was therefore utilized to develop tumors from human prostatic cancer cells (LNCAP) in male nude mice. BALB/c male athymic mice, 4-6 weeks old, were inoculated sc with LNCaP cells suspended in Matrigel (10 mg/ml). Four sites per mouse were injected with 1.8×10^6 cells in 0.1 ml Matrigel. Treatment began when the tumor reached about 100 mm^3 in volume. Tumors were measured before the treatment began and once a week during treatment. Tumor volume was calculated by the formula 4/3πr1^2 r2 (r1 <r2).At the end of treatment, the mice were sacrificed and individual tumors were weighed. The latency of tumor development was 30-40 days and overall tumorigenicity was 82%.
In a further experiment, two mice were treated with I-16 (1 mg/mouse/day, s.c.) beginning 45 days after cell inoculation. Two mice received vehicle as controls. […] The mean tumor weight was 198.78±72 mg in I-16 treated mice compared to 386.3±147.2 mg in the control group. In other experiments, I-47 and I-49 were effective in controlling tumor growth. The total tumor volume of the control mice increased to 884.0% of the initial volume.

Chain of human androgen receptor (AR) (P10275 whole entry): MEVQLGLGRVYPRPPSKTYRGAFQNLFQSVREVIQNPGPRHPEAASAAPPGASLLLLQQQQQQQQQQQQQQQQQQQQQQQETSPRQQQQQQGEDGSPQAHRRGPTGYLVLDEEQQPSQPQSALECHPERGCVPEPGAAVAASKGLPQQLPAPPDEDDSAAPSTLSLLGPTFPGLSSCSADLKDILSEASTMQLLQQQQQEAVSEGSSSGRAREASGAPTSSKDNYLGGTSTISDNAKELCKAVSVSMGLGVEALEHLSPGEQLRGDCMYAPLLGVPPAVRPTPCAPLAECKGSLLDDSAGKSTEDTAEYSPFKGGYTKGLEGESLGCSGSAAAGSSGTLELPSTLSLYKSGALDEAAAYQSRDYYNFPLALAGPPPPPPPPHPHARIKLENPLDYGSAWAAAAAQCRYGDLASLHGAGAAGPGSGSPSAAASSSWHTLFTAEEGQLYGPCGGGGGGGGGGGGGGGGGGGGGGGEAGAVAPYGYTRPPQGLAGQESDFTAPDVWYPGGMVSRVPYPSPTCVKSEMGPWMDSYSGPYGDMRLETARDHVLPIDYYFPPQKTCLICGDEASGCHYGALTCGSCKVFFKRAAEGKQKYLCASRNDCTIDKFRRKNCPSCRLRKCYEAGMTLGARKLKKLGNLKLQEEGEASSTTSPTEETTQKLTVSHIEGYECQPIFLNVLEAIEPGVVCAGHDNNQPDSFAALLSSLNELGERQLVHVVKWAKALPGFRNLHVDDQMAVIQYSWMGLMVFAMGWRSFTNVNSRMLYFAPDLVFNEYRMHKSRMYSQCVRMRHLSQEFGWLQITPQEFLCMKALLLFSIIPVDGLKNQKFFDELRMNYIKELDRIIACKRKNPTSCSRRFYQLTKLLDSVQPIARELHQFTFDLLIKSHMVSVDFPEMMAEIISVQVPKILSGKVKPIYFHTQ

CC(=NO)C1=CC[C@H]2[C@@H]3CC=C4C[C@@H](O)CC[C@]4(C)[C@H]3CC[C@]12C [Compound I-5, 16-dehydropregnenolone-20-oxime]
effect on adrenal 17α-hydroxylase ([1]; 17α-hydroxylase required for cortisol synthesis): 4% | IC50 ([2]; IC50 C17,20 lyase): 16 nM | IC50 [3]: 16 nM | inhibition of 17α-hydroxylase/C17,20-lyase (in words) [4]: potent inhibition | fold more potent inhibition than 20-oxime (I-1) ([4]; vs I-1): 35 fold | reduction in adrenal androgen synthesis (C17,20-lyase) [5]: 77% | inhibition at 0.01 µM [6]: 0% | inhibition at 0.1 µM [6]: 5.92%

C[C@]12CC[C@H]3[C@@H](CC=C4C[C@@H](O)CC[C@@]43C)[C@@H]1CC[C@@H]2[C@]1(C)CO1 [Compound I-7]
effect on adrenal 17α-hydroxylase (in words) [1]: no effect | IC50 ([2]; Table 1, NI = no inhibition, CI = complete inhibition, read-out: IC50 C17,20 lyase): 720 nM | reduction in adrenal androgen synthesis (C17,20-lyase) [5]: 63% | inhibition at 0.01 µM [6]: 13.6% | inhibition at 0.1 µM [6]: 12.1%

C[C@H](C=O)[C@H]1CC[C@H]2[C@@H]3CCC4=CC(=O)CC[C@]4(C)[C@H]3CC[C@]12C [Compound I-16, 4-pregnen-3-one-20β-carboxaldehyde]
antagonism of wild-type AR (in words) [7]: dose-dependent antagonism | reduction of testosterone and DHT levels in serum, testicular and prostatic tissues (in words) [8]: significantly reducing testosterone and DHT levels | agonism/antagonism at mutant AR of LNCaP cells (in words) [9]: agonists | inhibition of 17α-hydroxylase/C17,20-lyase (in words) [4]: significant inhibition | inhibition of rat 17α-hydroxylase/C17,20-lyase (in words) [10]: inhibit rat 17α-hydroxylase/C17,20 -lyase | inhibition at 0.01 µM [6]: 20.5% | inhibition at 0.1 µM [6]: 87.2% | total tumor volume (% of initial volume), 3 weeks ([11]; 3 weeks, two mice, control 281%): 173.6% | mean tumor weight, 3-week experiment ([11]; control 386.3±147.2 mg): 198.78 ± 72 mg
